According to patent publication US8574831B2, “Mutational profiles in HIV-1 reverse transcriptase correlated with phenotypic drug resistance” (Virco N.V., priority 2000, dated 2013):

Tested on: HIV with mutations in the HIV protease sequence
Assay: Phenotypic fold resistance to protease inhibitors, protease mutations 84A/84L/84C/54M/54L/54V in a background (Examples 8-13)
Assay type: cell-based, HIV-1
Experimental: As is the case with the genotyping assays, the recombinant virus assay starts with the amplification of viral target sequences by means of PCR. The amplicons are incorporated into a proviral laboratory clone with sequences homologous to those present in the amplicon deleted. This generates a stock of chimeric viruses. The viruses are tested for their ability to grow in the presence of different concentrations of drugs. Results are obtained by calculating IC50 values for each inhibitor and by reporting the results as IC50 values, expressed in μM concentrations, or by computing the ratio of the IC50 values found for the chimeric virus to the IC50 values found for a wild type susceptible laboratory virus tested in parallel. In the latter case, resistance is expressed as “fold-resistance” compared to a wild-type susceptible HIV-1 strain. In order to meet the need for high-volume testing and a short turn-around time for an individual test, the latest generation of phenotyping assays has undergone further modifications. The use of reporter gene systems for susceptibility testing allows the implementation of laboratory automation and standardization. See Pauwels, et al., J. Virol. Methods 20, 309-321 (1998); Paulous, S., et al., International Workshop on HIV Drug Resistance, Treatment Strategies and Eradication, St. Petersburg, Fla., USA. Abstr. 46 (1997); and Deeks, S. G., et al., 2nd International Workshop on HIV Drug Resistance and Treatment Strategies, Lake Maggiore, Italy. Abstr. 53 (1998).
The ANTIVIROGRAM® assay (Virco) (WO 97/27480) is based on homologous recombination of patient derived HIV-1 gag/PR/RT sequences into a proviral HIV-1 clone correspondingly deleted for the gag/PR/RT sequences. See Pauwels, et al., J. Virol. Methods 20, 309-321 (1998). A similar assay (Phenosense ViroLogic) is based on enzymatic ligation of patient-derived PR/RT sequences into a correspondingly deleted proviral vector carrying an indicator gene, luciferase, inserted in the deleted HIV-1 envelope gene. See Deeks, S. G., et al., 2nd International Workshop on HIV Drug Resistance and Treatment Strategies, Lake Maggiore, Italy. Abstr. 53 (1998). Hertogs et al. Antimicrob. Agents Chemother. 44(3) 568-573 (2000) the disclosures of which are herein incorporated by reference.
The methods of monitoring HIV-1 drug resistance, may also be used in combination with phenotypic drug resistance testing of viral isolates. For example, in one embodiment, a phenotypic test is utilized that is based upon the construction of chimeric HIV-1 strains composed of the protease (PR) and reverse transcriptase (RT) gene sequences which are isolated and amplified from the patient viral RNA. These strains may subsequently be recombined inside CD4+ T cells with a standard laboratory isogenic (HXB2) HIV-1 DNA construct from which the PR/RT gene sequences were deleted. The recombinant strains may then be grown in the presence of the above-mentioned antiviral drugs and the susceptibility of the viral isolates may be expressed as fold-change value of the IC50 of the drug on the patient isolates over the IC50 of the drug on a wild-type laboratory reference strain.

CC(C)(C)NC(=O)[C@@H]1CN(Cc2cccnc2)CCN1C[C@@H](O)C[C@@H](Cc1ccccc1)C(=O)N[C@H]1c2ccccc2C[C@H]1O [Indinavir, indinavir]
Fold change in IC50 (Table 12, V055199, genotype 10I + 33F + 54M + 90M): 2.3 fold
Fold change in IC50 (Table 13, V19263, genotype 77I): 0.4 fold
Fold change in IC50 (Table 13, V20160, genotype WT): 0.9 fold
Fold change in IC50 (Table 13, V021667, genotype 10I): 0.7 fold
Fold change in IC50 (Table 13, V030496, genotype 10I + 77I): 0.4 fold
Fold change in IC50 (Table 13, V048868, genotype 10I + 54L + 71V + 77I + 90M): 6.2 fold
Fold change in IC50 (Table 13, V048874, genotype 10I + 33F + 54L + 71V + 77I + 90M): 2.1 fold
Fold change in IC50 (Table 13, V048875, genotype 10I + 33F + 54L + 71V + 77I + 90M): 3.7 fold
Fold change in IC50 (Table 13, V048877, genotype 10I + 33F + 77I + 90M): 2.9 fold
Fold change in IC50 (Table 13, V048880, genotype 10I + 33F + 77I + 90M): 1.3 fold
Fold change in IC50 (Table 13, V052940, genotype 71V): 0.7 fold
Fold change in IC50 (Table 13, V052942, genotype 10I + 71V): 0.6 fold
Fold change in IC50 (Table 13, V052943, genotype 10I + 90M): 0.5 fold
Fold change in IC50 (Table 13, V052944, genotype 10I + 90M): 0.5 fold
Fold change in IC50 (Table 13, V052945, genotype 77I + 90M): 0.6 fold
Fold change in IC50 (Table 13, V052946, genotype 71V + 90M): 0.9 fold
Fold change in IC50 (Table 13, V052947, genotype 10I + 77I + 90M): 2.9 fold
Fold change in IC50 (Table 13, V052948, genotype 10I + 71V + 90M): 8.6 fold
Fold change in IC50 (Table 13, V052949, genotype 10I + 71V + 77I + 90M): 2.7 fold
Fold change in IC50 (Table 13, V052950, genotype 33F): 0.6 fold
Fold change in IC50 (Table 13, V052951, genotype 33F + 77I): 0.4 fold
Fold change in IC50 (Table 13, V052953, genotype 10I + 33F + 77I): 0.8 fold
Fold change in IC50 (Table 13, V052954, genotype 33F + 77I + 90M): 1.7 fold
Fold change in IC50 (Table 13, V052955, genotype 33F + 71V + 90M): 5.3 fold
Fold change in IC50 (Table 13, V052968, genotype 10L/I + 33F/L + 54L + 77I): 1.3 fold
Fold change in IC50 (Table 13, V052969, genotype 10I + 33F + 54L + 90M): 1.3 fold
Fold change in IC50 (Table 13, V052970, genotype 54L): 0.6 fold
Fold change in IC50 (Table 13, V052971, genotype 10I + 54L): 0.7 fold
Fold change in IC50 (Table 13, V052972, genotype 54L + 77I): 0.8 fold
Fold change in IC50 (Table 13, V052973, genotype 10I + 54L + 77I): 0.8 fold
Fold change in IC50 (Table 13, V052974, genotype 10I + 54L + 90M): 1.7 fold
Fold change in IC50 (Table 13, V052975, genotype 10I + 54L + 71V + 90M): 10.2 fold
Fold change in IC50 (Table 13, V052976, genotype 10I + 54L + 71V + 77I + 90M): 1.7 fold
Fold change in IC50 (Table 13, V053832, genotype 10I + 33F): 0.4 fold
Fold change in IC50 (Table 13, V053854, genotype 54L + 71V): 1.7 fold
Fold change in IC50 (Virco ID 214846, genotype 10I + 33F + 54V + 71V + 77I + 90M, vs mean IC50 of wild type laboratory HIV strain): 13.8 fold
Fold change in IC50 (Virco ID V021667, genotype 10I, vs mean IC50 of wild type laboratory HIV strain): 0.7 fold
Fold change in IC50 (Virco ID V030496, genotype 10I + 77I, vs mean IC50 of wild type laboratory HIV strain): 0.4 fold
Fold change in IC50 (Virco ID V048876, genotype 33F + 54V + 77I + 90M, vs mean IC50 of wild type laboratory HIV strain): 0.6 fold
Fold change in IC50 (Virco ID V048877, genotype 10I + 33F + 77I + 90M, vs mean IC50 of wild type laboratory HIV strain): 2.9 fold
Fold change in IC50 (Virco ID V048880, genotype 10I + 33F + 77I + 90M, vs mean IC50 of wild type laboratory HIV strain): 1.3 fold
Fold change in IC50 (Virco ID V052940, genotype 71V, vs mean IC50 of wild type laboratory HIV strain): 0.7 fold
Fold change in IC50 (Virco ID V052942, genotype 10I + 71V, vs mean IC50 of wild type laboratory HIV strain): 0.6 fold
Fold change in IC50 (Virco ID V052943, genotype 10I + 90M, vs mean IC50 of wild type laboratory HIV strain): 0.5 fold
Fold change in IC50 (Virco ID V052944, genotype 10I + 90M, vs mean IC50 of wild type laboratory HIV strain): 0.5 fold
Fold change in IC50 (Virco ID V052946, genotype 71V + 90M, vs mean IC50 of wild type laboratory HIV strain): 0.9 fold
Fold change in IC50 (Virco ID V052947, genotype 10I + 77I + 90M, vs mean IC50 of wild type laboratory HIV strain): 2.9 fold
Fold change in IC50 (Virco ID V052948, genotype 10I + 71V + 90M, vs mean IC50 of wild type laboratory HIV strain): 8.6 fold
Fold change in IC50 (Virco ID V052949, genotype 10I + 71V + 77I + 90M, vs mean IC50 of wild type laboratory HIV strain): 2.7 fold
Fold change in IC50 (Virco ID V052950, genotype 33F, vs mean IC50 of wild type laboratory HIV strain): 0.6 fold
Fold change in IC50 (Virco ID V052951, genotype 33F + 77I, vs mean IC50 of wild type laboratory HIV strain): 0.4 fold
Fold change in IC50 (Virco ID V052953, genotype 10I + 33F + 77I, vs mean IC50 of wild type laboratory HIV strain): 0.8 fold
Fold change in IC50 (Virco ID V052954, genotype 33F + 77I + 90M, vs mean IC50 of wild type laboratory HIV strain): 1.7 fold
Fold change in IC50 (Virco ID V052955, genotype 33F + 71V + 90M, vs mean IC50 of wild type laboratory HIV strain): 5.3 fold
Fold change in IC50 (Virco ID V052957, genotype 10I + 33F + 54V + 90M, vs mean IC50 of wild type laboratory HIV strain): 1.4 fold
Fold change in IC50 (Virco ID V052958, genotype 10I + 33F + 54V + 77I + 90M, vs mean IC50 of wild type laboratory HIV strain): 16.3 fold
Fold change in IC50 (Virco ID V052959, genotype 10I + 33F + 54V + 77I + 90M, vs mean IC50 of wild type laboratory HIV strain): 12.8 fold
Fold change in IC50 (Virco ID V052960, genotype 10I + 33F + 54V + 71V + 90M, vs mean IC50 of wild type laboratory HIV strain): 9.9 fold
Fold change in IC50 (Virco ID V052961, genotype 54V, vs mean IC50 of wild type laboratory HIV strain): 0.7 fold
Fold change in IC50 (Virco ID V052962, genotype 10I + 54V, vs mean IC50 of wild type laboratory HIV strain): 0.8 fold
Fold change in IC50 (Virco ID V052963, genotype 54V + 77I + 90M, vs mean IC50 of wild type laboratory HIV strain): 1.2 fold
Fold change in IC50 (Virco ID V052964, genotype 54V + 71V + 90M, vs mean IC50 of wild type laboratory HIV strain): 0.7 fold
Fold change in IC50 (Virco ID V052965, genotype 10I + 54V + 77I + 90M, vs mean IC50 of wild type laboratory HIV strain): 8.2 fold
Fold change in IC50 (Virco ID V052966, genotype 10I + 54V + 71V + 90M, vs mean IC50 of wild type laboratory HIV strain): 7.7 fold
Fold change in IC50 (Virco ID V052967, genotype 10I + 54V + 71V + 77I + 90M, vs mean IC50 of wild type laboratory HIV strain): 0.4 fold
Fold change in IC50 (Virco ID V053358, genotype 33F + 54V + 77I + 90M, vs mean IC50 of wild type laboratory HIV strain): 1.2 fold
Fold change in IC50 (Virco ID V053831, genotype 33F + 54V, vs mean IC50 of wild type laboratory HIV strain): 5.4 fold
Fold change in IC50 (Virco ID V053832, genotype 10I + 33F, vs mean IC50 of wild type laboratory HIV strain): 0.4 fold
